These results are taken from PMC4595804, “A strategy to discover decoy chemokine ligands with an anti-inflammatory activity” (Scientific Reports, 2015).

Assay [1] deals with T1, CCL2 (Homo sapiens, UniProt P13500).
T1 construct: purchased R&D systems
The experiment in a line: Selectivity, neutraligand protocol, EGFP-CCR2+ HEK cells. Type of assay: cell-based. The conditions noted are these: 10 μM compound, 5 nM CCL2, EGFP-CCR2+ HEK cells. As to the method: (§1) Figure 6 (a) Selectivity of CCL17 and CCL22 neutraligands towards 10 chemokines according to the “neutraligand protocol”. […] Each column represents the mean (block) ± SD (bars) of n = 3 experiments performed in triplicate. *p < 0.05; **p < 0.01; ***p < 0.005 as compared to chemokine + DMSO. (b) Chemokine neutraligands inhibited CCR4 endocytosis induced by CCL22 or CCL17. EGFP-CCR4^+ HEK cells were incubated for 30 min with DMSO or chemokine (100 nM CCL22 or CCL17) in the presence or absence of test compounds. […] Cell surface EGFP-tagged CCR4 receptors were measured by EGFP antibody labeling and flow cytometry analysis. CCR4 internalization was expressed as a percentage of total receptor surface expression calculated using control cells incubated with DMSO (100%). […] The number of migrating cells in the presence of chemokine and compounds were expressed as the corresponding percentages. Results were analyzed by fitting the experimental curves (% of migrating cells vs log compound concentration) using the Kaleidagraph software program, and the corresponding IC50 values were calculated. […]
Dye loaded cells were placed in the FlexStation 3 (Molecular Devices). Calcium mobilization was measured at 401 and 475 nm emission fluorescence after excitation at 355 nm. […] Raw fluorescence data (at 401 and 475 nm) were exported and the ratio 401/475 was calculated. […]

The target in assay [2] is T2, CCL22 (Homo sapiens, UniProt O00626).
T2 construct: codes for the mature CCL17 or CCL22 with an N-terminal thioredoxin-hexahistidin (TRX- (His)6) tag; thioredoxin (TRX) (N, cleaved yes); (His)6 (N, cleaved yes); made in house; host or cells: E. coli BL21 (DE3)
T2 sequence (O00626 25-93): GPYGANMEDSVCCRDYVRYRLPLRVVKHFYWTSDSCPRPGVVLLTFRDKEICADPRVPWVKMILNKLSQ
The experiment in a line: CCL22-induced CCR4+ HUT78 T cell chemotaxis (Transwell), neutraligand protocol. The assay is classed as cell-based. The conditions noted are these: 3 nM CCL22 preincubated 1 h with compound; read-out: IC50, inhibition of CCL22-induced HUT78 chemotaxis. As for the experimental part:
as §1
The T- cell line, HUT78 (ATCC), was cultured in RPMI 1640 supplemented with streptomycin, penicillin and 10% FCS without phenol red. […] After a 2 h incubation at 37 °C and 5%CO2, the plates were read with an excitation wavelength of 485 nm and an emission wavelength of 535 nm. […]

T1 sequence (P13500 24-99): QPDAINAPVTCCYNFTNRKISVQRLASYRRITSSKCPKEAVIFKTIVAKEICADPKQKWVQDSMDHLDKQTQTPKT

For the molecule `O=C(OCC(O)CO)c1ccccc1O` (centres unmarked) [GPN136, 2,3-dihydroxypropyl 2-hydroxybenzoate], the “effect on calcium responses induced by CCL2” value in assay [1] is recorded as “no effect”. In assay [2], the half-maximal inhibitory concentration (IC50) worked out at 0.34 ± 0.1 nM.

As a reminder, the IC50 is the midpoint of a concentration-inhibition curve.
